We go through two compounds from patent US20220022513A1 (INTERNATIONAL FLAVORS & FRAGRANCES INC., priority 2018, published 2022).

Type in all cases: in vivo
The nature of test [1]: Sensory evaluation of sebacic acid at different amounts in sugar water. The procedure: Sugar water (4% sucrose in drinking water) was prepared and used as a base solution.
Test [2] in a line: Descriptive sensory evaluation (taste modulation) of sebacic acid in different applications. The procedure:
Descriptive sensory evaluations were carried out using different amounts of sebacic acid in different applications.

Test [3] can be described thus: Sensory evaluation of sebacic acid and traumatic acid in sweetened milk. The settings on record: for sweetness and mouthfeel of sweetened milk: 2 ppm (each) in sweetened milk; for Taste Evaluation: 2 ppm (each) in sweetened milk (2% fat milk with 2% sucrose), versus base. As for the experimental part: Sweetened milk (2% fat milk with 2% sucrose) was prepared and used as a base solution (“base”).

Turning to `O=C(O)CCCCCCCCC(=O)O` [Sebacic acid, sebacic acid], the “Taste Evaluation” value was “Slight sweet and mouthfeel” in test [1] (0.02 ppm in sugar water (4% sucrose in drinking water)); “Strong sweet and mouthfeel” in test [1] (1000 ppm in sugar water (4% sucrose in drinking water)); “Increases fatty perception” in test [2] (7.5 ppm in 3% Sugar-Sweetened Full Fat Milk); “Cuts sour end, increased” in test [2] (7.5 ppm in Mixed Berry Yogurt Smoothie (1% Fat, 9% Sugar, 3% Protein)); “Sweet up front, more” in test [2] (15 ppm in Strawberry Flavored Yogurt (5% Sugar, 0.4% Fat, 8.7 Grams Protein)); “Fatty and oily” in test [2] (40 ppm in 3% Sugar + 0.05% Citric Acid Water Solution). The “Taste Evaluation” value in test [2] (40 ppm in Water, compared to same application without sebacic acid) is “Fatty and oily”; in test [3] it was “Sweeter and more mouthfeel”. In addition, the “sweetness and mouthfeel of sweetened milk” value in test [3] was “increased sweetness and mouthfeel”.
Consider `O=C(O)/C=C/CCCCCCCCC(=O)O` [Traumatic Acid, traumatic acid], for which, in test [3], the “sweetness and mouthfeel of sweetened milk” value was “increased sweetness and mouthfeel”; the “Taste Evaluation” value was “Sweeter and more mouthfeel”.
